Counter-ions that a name gives are not always drawn.
What was measured:
[1] = NAM levels in CSF and sera of mice (targeted metabolomics); settings: NAM 49.28 mg/kg/week s.c. osmotic pumps; SOD1-Tg mice vs water-treated controls
Experimental: Mice were anesthetized by i.p. injection of ketamine (100 mg/kg) and xylazine (10 mg/kg). The skin of the neck was shaved, and the mouse was placed prone on the stereotaxic instrument. The head was secured with the head adaptors. […] Under the dissection microscope, the subcutaneous tissue and muscles (m. biventer cervicis and m. rectus capitis dorsalis major) were separated by blunt dissection with forceps. A pair of micro-retractors is used to hold the muscles apart. The dura mater was blotted dry with sterile cotton swab. CSF was collected using a capillary tube to penetrate into the cisterna magna through the dura mater, lateral to the arteria dorsalis spinalis, immediately frozen in liquid nitrogen and stored at −80° C.
The samples (in 50% Methanol) were dried in a speed vac to blow off the methanol before drying to completion in a lyophilizer. All samples were re-dissolved in 100 μl of 0.1% formic acid.
Liquid Chromatography: Liquid chromatography was performed on a Waters Acquity UPLC system. […] Mobile phase consisted of (A) water and (B) acetonitrile each containing 0.1% formic acid. […]
Mass Spectrometry: LC-MS/MS analysis was performed on a Waters Xevo triple quadrupole equipped with a Zspray ESI source. […] TargetLynx (Waters) was used for Qualitative and Quantitative analysis.

[2] = system: SOD1-Tg mice; assay: Survival of SOD1-Tg mice; type: in vivo, mouse; settings: NAM s.c. osmotic pumps vs vehicle; p=0.1757, Log-rank test
Experimental: From the age of 130 days, mice were monitored daily. The endpoint was defined by reaching neurological score of 4 and/or more than 15% reduction in body weight. The probability of survival was calculated using the Kaplan-Meier method, and statistical analysis was performed using a log-rank test.

[3] = system: SOD1-Tg mice; assay: Motor function tests (rotarod, hanging-wire grip test, neurological scoring) in ALS mouse model; type: in vivo; settings: subcutaneously implanted mini osmotic pumps, continuous administration; vs vehicle-treated SOD1-Tg mice
Source text: G93A mSOD1-Tg mice on a C57BL/6 background were used. In all experiments, age- and gender-matched mice were used and WT littermates as controls. Mice were 40 days of age at the beginning of experiments. All mice were kept at a strict 24 hr reverse light-dark cycle, with lights being turned on from 10 pm to 10 am. Tryptophan-deficient diet (A10033Yi, Research diets, NJ, USA) was applied from the age of 40 days until the experimental end-point. For antibiotic treatment, mice were given a combination of vancomycin (0.5 g/l), ampicillin (1 g/l), kanamycin (1 g/l), and metronidazole (1 g/l) in their drinking water from the age of 40 days as previously described (Levy et al., 2015). […]
Vehicle control pumps contained equivalent volume of Ultra-pure water. […] The cut was then closed with sterile surgical clips and the animals were carefully monitored for any signs of stress, bleeding, pain, or abnormal behavior. […]
Rotarod: To assess motor coordination and balance, each mouse was tested with a rotarod device (Panlab Le8500 Harvard Apparatus, Spain), in acceleration speed mode (increasing from 4 rpm to 40 rpm during 10 min), with a maximum test time of 5 min. […] Each mouse was recorded three times at the ages of 60, 80, 100, 120 and 140 days. The apparatus automatically recorded the elapsed time when the mouse fell from the spindle. […]

NC(=O)c1cccnc1 [NAM, Nicotinamide]
NAM levels in sera [1]: significantly increased | Survival [2]: non-significantly trend to improve survival | ALS symptoms / behavioral and neurological motor tests [3]: performed significantly better

O=S(=O)(O)Oc1ccccc1 [Phenol sulfate]
ALS symptoms / behavioral and neurological motor tests [3]: did not affect ALS symptoms
